This passage reports IC50 results from patent publication US10538555B2, “Macrocyclic inhibitors of the PD-1/PD-L1 and CD80(B7-1)/PD-L1 protein/protein interactions” (BRISTOL-MYERS SQUIBB COMPANY, priority 2014, dated 2020).

The test deals with T1, Human PD-L1/PD-1 (Homo sapiens, UniProt Q9NZQ7).
T1 construct: TVMV protease cleavage site (C); made in house; host or cells: HEK293T cells
The test can be described thus: HTRF Human PD-L1/PD-1 binding assay (PD-1-Ig/PD-L1-His). As to conditions: PD-L1-His 10 nM, PD-1-Ig 20 nM. Put shortly: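 Truncated Fc-fused human PD-1 (aa 25-167) at 20 nM and His-tagged PD-L1 (aa 18-239) at 10 nM final are used, with peptides preincubated 15 min with PD-L1. Detection uses europium-cryptate anti-Ig and APC anti-His antibodies; 665/620 nm ratio.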

Where [1] appears, read: class symbol, read-out: HTRF Human PD-L1/PD-1 Binding Assay IC50 Range.

Structures are written as SMILES. Where two headings read alike, the source gives them in different places. *1 amine or outer side, *2 acyl side, *3 side chain or, on linkers, in order; H or OH if unused. Where a SMILES comes first, the peptide text is derived from it. Bridges are numbered along the chain shown (N, C = ends). [ ]: non-standard residue; d: D form. Trp(βS-Me) = C[C@@H](c1c[nH]c2ccccc12)[C@H](N)C(=O)O; Phe(3,4,5-F3) = N[C@@H](Cc1cc(F)c(F)c(F)c1)C(=O)O; d(cisHyp) = O=C(O)[C@H]1C[C@@H](O)CN1; NMeY = CN[C@@H](Cc1ccc(O)cc1)C(=O)O; Hyp = O=C(O)[C@@H]1C[C@@H](O)CN1; NMeF = CN[C@@H](Cc1ccccc1)C(=O)O; X1 = O=C([C@H]1COCCN1[*:1])[*:2]; dNMeF = CN[C@H](Cc1ccccc1)C(=O)O; dHyp = O=C(O)[C@H]1C[C@H](O)CN1; NMeNle = CCCC[C@H](NC)C(=O)O; Tle = CC(C)(C)[C@H](N)C(=O)O; NMeA = CN[C@@H](C)C(=O)O; Orn = NCCC[C@H](N)C(=O)O; Dab = NCC[C@H](N)C(=O)O

T1 sequence (Q9NZQ7 with tags, fused parts or gaps): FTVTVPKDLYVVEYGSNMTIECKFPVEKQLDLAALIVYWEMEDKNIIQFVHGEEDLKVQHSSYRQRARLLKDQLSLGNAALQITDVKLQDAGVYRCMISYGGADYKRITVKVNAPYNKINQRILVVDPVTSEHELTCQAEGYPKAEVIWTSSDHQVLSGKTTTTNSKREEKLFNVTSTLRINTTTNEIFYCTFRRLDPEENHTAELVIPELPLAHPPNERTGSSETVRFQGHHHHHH

With `CCCC[C@H]1C(=O)N2CCOC[C@@H]2C(=O)N[C@@H](CC(=O)O)C(=O)N[C@@H](C(C)C)C(=O)N(C)[C@@H](Cc2ccccc2)C(=O)N[C@@H](CCN)C(=O)N2CCOC[C@@H]2C(=O)N[C@@H](Cc2c[nH]c3ccccc23)C(=O)N[C@@H](Cc2ccc(O)cc2)C(=O)N[C@@H](CCC(=O)O)C(=O)N[C@H](C(=O)NCC(N)=O)CSCC(=O)N[C@@H](Cc2cc(F)c(F)c(F)c2)C(=O)N(C)[C@@H](Cc2ccc(O)cc2)C(=O)N1C` [Example 10628] ({CH2CO}-[Phe(3,4,5-F3)][NMeY][NMeNle][X1]DV[NMeF][Dab][X1]WYECG-NH2; thioether N-13), the IC50 under setting [1] is 10 to 99.9 nM. Turning to `CCCC[C@H]1C(=O)N2CCC[C@@H]2C(=O)N[C@@H](CC(=O)O)C(=O)N[C@@H](C(C)C)C(=O)N(C)[C@@H](Cc2ccccc2)C(=O)N[C@@H](CCC(=O)O)C(=O)N2C[C@H](O)C[C@@H]2C(=O)N[C@@H](Cc2c[nH]c3ccccc23)C(=O)N[C@@H](Cc2ccc(O)cc2)C(=O)N[C@@H](CC(C)C)C(=O)N[C@H](C(=O)NCC(N)=O)CSCC(=O)N[C@@H](Cc2cc(F)c(F)c(F)c2)C(=O)N(C)[C@@H](Cc2ccc(O)cc2)C(=O)N1C` [Example 10629] ({CH2CO}-[Phe(3,4,5-F3)][NMeY][NMeNle][dP]DV[NMeF]E[d(cisHyp)]WYLCG-NH2; thioether N-13), the IC50 under setting [1] is 10 to 99.9 nM.

In the case of `CCCC[C@H]1C(=O)N2CCC[C@@H]2C(=O)N[C@@H](CC(=O)O)C(=O)N[C@@H](C(C)C)C(=O)N(C)[C@@H](Cc2ccccc2)C(=O)N[C@@H](CCC(=O)O)C(=O)N2C[C@H](O)C[C@@H]2C(=O)N[C@@H](Cc2c[nH]c3ccccc23)C(=O)N[C@@H](Cc2ccc(O)cc2)C(=O)N[C@@H](CCC(N)=O)C(=O)N[C@H](C(=O)NCC(N)=O)CSCC(=O)N[C@@H](Cc2cc(F)c(F)c(F)c2)C(=O)N(C)[C@@H](Cc2ccc(O)cc2)C(=O)N1C` [Example 10631] ({CH2CO}-[Phe(3,4,5-F3)][NMeY][NMeNle][dP]DV[NMeF]E[d(cisHyp)]WYQCG-NH2; thioether N-13), under setting [1], the IC50 was in the range of 10 to 99.9 nM. On to `CCCC[C@H]1C(=O)N2CCC[C@@H]2C(=O)N[C@@H](CC(=O)O)C(=O)N[C@@H](C(C)C)C(=O)N(C)[C@@H](Cc2ccccc2)C(=O)N[C@@H](CCC(=O)O)C(=O)N2C[C@H](O)C[C@@H]2C(=O)N[C@@H](Cc2c[nH]c3ccccc23)C(=O)N[C@@H](Cc2ccc(O)cc2)C(=O)N[C@@H](CCCN)C(=O)N[C@H](C(=O)NCC(N)=O)CSCC(=O)N[C@@H](Cc2cc(F)c(F)c(F)c2)C(=O)N(C)[C@@H](Cc2ccc(O)cc2)C(=O)N1C` [Example 10632] ({CH2CO}-[Phe(3,4,5-F3)][NMeY][NMeNle][dP]DV[NMeF]E[d(cisHyp)]WY[Orn]CG-NH2; thioether N-13), for which the IC50 under setting [1] is 1 to 9.9 nM. Same read-out and setting: to `CCCC[C@H]1C(=O)N2CCC[C@@H]2C(=O)N[C@@H](CC(=O)O)C(=O)N[C@@H](C(C)C)C(=O)N(C)[C@@H](Cc2ccccc2)C(=O)N[C@@H](CCC(=O)O)C(=O)N2C[C@H](O)C[C@@H]2C(=O)N[C@@H](Cc2c[nH]c3ccccc23)C(=O)N[C@@H](Cc2ccc(O)cc2)C(=O)N[C@@H](CCC(=O)O)C(=O)N[C@H](C(=O)NCC(N)=O)CSCC(=O)N[C@@H](Cc2cc(F)c(F)c(F)c2)C(=O)N(C)[C@@H](Cc2ccc(O)cc2)C(=O)N1C` [Example 10633] ({CH2CO}-[Phe(3,4,5-F3)][NMeY][NMeNle][dP]DV[NMeF]E[d(cisHyp)]WYECG-NH2; thioether N-13) belongs 10 to 99.9 nM. For `CCCC[C@H]1C(=O)N2C[C@H](O)C[C@@H]2C(=O)N[C@@H](CC(=O)O)C(=O)N[C@@H](C(C)C)C(=O)N(C)[C@@H](Cc2ccccc2)C(=O)N[C@@H](CCC(=O)O)C(=O)N2C[C@H](O)C[C@@H]2C(=O)N[C@@H](Cc2c[nH]c3ccccc23)C(=O)N[C@@H](Cc2ccc(O)cc2)C(=O)N[C@@H](CCC(=O)O)C(=O)N[C@H](C(=O)NCC(N)=O)CSCC(=O)N[C@@H](Cc2cc(F)c(F)c(F)c2)C(=O)N(C)[C@@H](Cc2ccc(O)cc2)C(=O)N1C` [Example 10637] ({CH2CO}-[Phe(3,4,5-F3)][NMeY][NMeNle][d(cisHyp)]DV[NMeF]E[d(cisHyp)]WYECG-NH2; thioether N-13), the IC50 under setting [1] was 10 to 99.9 nM.

Take `CCCC[C@H]1C(=O)N2C[C@H](O)C[C@@H]2C(=O)N[C@@H](CC(=O)O)C(=O)N[C@@H](C(C)C)C(=O)N(C)[C@@H](Cc2ccccc2)C(=O)N[C@@H](CCC(=O)O)C(=O)N2C[C@H](O)C[C@@H]2C(=O)N[C@@H](Cc2c[nH]c3ccccc23)C(=O)N[C@@H](Cc2ccc(O)cc2)C(=O)N[C@@H](CCCN)C(=O)N[C@H](C(=O)NCC(N)=O)CSCC(=O)N[C@@H](Cc2cc(F)c(F)c(F)c2)C(=O)N(C)[C@@H](Cc2ccc(O)cc2)C(=O)N1C` [Example 10638] ({CH2CO}-[Phe(3,4,5-F3)][NMeY][NMeNle][d(cisHyp)]DV[NMeF]E[d(cisHyp)]WY[Orn]CG-NH2; thioether N-13): the IC50 (read-out: HTRF Human PD-L1/PD-1 Binding Assay IC50) worked out at 12.5 nM.

For `CCCC[C@H]1C(=O)N2C[C@@H](O)C[C@@H]2C(=O)N[C@@H](CC(=O)O)C(=O)N[C@@H](C(C)C)C(=O)N(C)[C@H](Cc2ccccc2)C(=O)N[C@@H](Cc2ccc(O)cc2)C(=O)N2CCC[C@@H]2C(=O)N[C@@H]([C@@H](C)c2c[nH]c3ccccc23)C(=O)N[C@@H](Cc2ccc(O)cc2)C(=O)N[C@@H](CC(C)C)C(=O)N[C@H](C(=O)NCC(N)=O)CSCC(=O)N[C@@H](Cc2cc(F)c(F)c(F)c2)C(=O)N(C)[C@@H](Cc2ccccc2)C(=O)N1C` [Example 10640] ({CH2CO}-[Phe(3,4,5-F3)][NMeF][NMeNle][dHyp]DV[dNMeF]Y[dP][Trp(βS-Me)]YLCG-NH2; thioether N-13), the IC50 under setting [1] was in the range of 10 to 99.9 nM. Take `CCCC[C@H]1C(=O)N(C)[C@@H](CCCC)C(=O)N[C@@H](CCCNC(=N)N)C(=O)N[C@H](C(=O)NCC(N)=O)CSCC(=O)N[C@@H](Cc2ccc(O)cc2)C(=O)N(C)[C@@H](C)C(=O)N[C@@H](CC(N)=O)C(=O)N2CCC[C@H]2C(=O)N[C@@H](CCN)C(=O)N[C@@H](CC(C)C)C(=O)N2C[C@H](O)C[C@H]2C(=O)N[C@@H](Cc2c[nH]c3ccccc23)C(=O)N[C@@H](C(C)(C)C)C(=O)N[C@@H](Cc2c[nH]c3ccccc23)C(=O)N1C` [Example 11001] ({CH2CO}-Y[NMeA]NP[Dab]L[Hyp]W[Tle]W[NMeNle][NMeNle]RCG-NH2; thioether N-14): the IC50 under setting [1] was 10 to 99.9 nM.

Regarding `CCCC[C@H]1C(=O)N(C)[C@@H](CCCC)C(=O)N[C@@H](CCCCN)C(=O)N[C@H](C(=O)NCC(N)=O)CSCC(=O)N[C@@H](Cc2ccc(O)cc2)C(=O)N(C)[C@@H](C)C(=O)N[C@@H](CC(=O)O)C(=O)N2CCC[C@H]2C(=O)N[C@@H](Cc2c[nH]cn2)C(=O)N[C@@H](CC(C)C)C(=O)N2C[C@H](O)C[C@H]2C(=O)N[C@@H](Cc2c[nH]c3ccccc23)C(=O)N[C@@H](CO)C(=O)N[C@@H](Cc2c[nH]c3ccccc23)C(=O)N1C` [Example 11002] ({CH2CO}-Y[NMeA]DPHL[Hyp]WSW[NMeNle][NMeNle]KCG-NH2; thioether N-14), the IC50 under setting [1] was in the range of 1 to 9.9 nM. The same measure, in the same setting: to `CCCC[C@H]1C(=O)N(C)[C@@H](CCCC)C(=O)N[C@@H](CCCNC(=N)N)C(=O)N[C@H](C(=O)NCC(N)=O)CSCC(=O)N[C@@H](Cc2ccc(O)cc2)C(=O)N(C)[C@@H](C)C(=O)N[C@@H](CC(=O)O)C(=O)N2CCC[C@H]2C(=O)N[C@@H](Cc2c[nH]cn2)C(=O)N[C@@H](CC(C)C)C(=O)N2C[C@H](O)C[C@H]2C(=O)N[C@@H](Cc2c[nH]c3ccccc23)C(=O)N[C@@H](CCCCN)C(=O)N[C@@H](Cc2c[nH]c3ccccc23)C(=O)N1C` [Example 11003] ({CH2CO}-Y[NMeA]DPHL[Hyp]WKW[NMeNle][NMeNle]RCG-NH2; thioether N-14) belongs 1 to 9.9 nM.
